Experimental data published in ChEMBL document CHEMBL1926648, “Synthesis and biological activity of dihydroimidazole and 3,4-dihydrobenzo[4,5]imidazo[1,2-a][1,3,5]triazins” (2012).

Columns and labels:
Type in all cases: functional
Details in all cases: read-out: IZ
Micrococcus luteus [1] = assay: Antibacterial activity against Micrococcus luteus at 30000 ppm after 24 hrs by agar diffusion method
Escherichia coli [2] = assay: Antibacterial activity against Escherichia coli at 10000 ppm after 24 hrs by agar diffusion method
Escherichia coli [3] = assay: Antibacterial activity against Escherichia coli at 50000 ppm after 24 hrs by agar diffusion method
Escherichia coli [4] = assay: Antibacterial activity against Escherichia coli at 30000 ppm after 24 hrs by agar diffusion method
Pseudomonas aeruginosa [5] = assay: Antibacterial activity against Pseudomonas aeruginosa at 10000 ppm after 24 hrs by agar diffusion method
Staphylococcus aureus [6] = assay: Antibacterial activity against Staphylococcus aureus at 10000 ppm after 24 hrs by agar diffusion method
Staphylococcus aureus [7] = assay: Antibacterial activity against Staphylococcus aureus at 30000 ppm after 24 hrs by agar diffusion method
Pseudomonas aeruginosa [8] = assay: Antibacterial activity against Pseudomonas aeruginosa at 50000 ppm after 24 hrs by agar diffusion method
Kocuria rosea [9] = assay: Antibacterial activity against Micrococcus roseus at 50000 ppm after 24 hrs by agar diffusion method
Bacillus cereus [10] = assay: Antibacterial activity against Bacillus cereus at 50000 ppm after 24 hrs by agar diffusion method
Kocuria rosea [11] = assay: Antibacterial activity against Micrococcus roseus at 10000 ppm after 24 hrs by agar diffusion method
Bacillus subtilis [12] = assay: Antibacterial activity against Bacillus subtilis at 50000 ppm after 24 hrs by agar diffusion method
Micrococcus luteus [13] = assay: Antibacterial activity against Micrococcus luteus at 50000 ppm after 24 hrs by agar diffusion method
Staphylococcus aureus [14] = assay: Antibacterial activity against Staphylococcus aureus at 50000 ppm after 24 hrs by agar diffusion method
Kocuria rosea [15] = assay: Antibacterial activity against Micrococcus roseus at 30000 ppm after 24 hrs by agar diffusion method
Pseudomonas aeruginosa [16] = assay: Antibacterial activity against Pseudomonas aeruginosa at 30000 ppm after 24 hrs by agar diffusion method
Bacillus subtilis [17] = assay: Antibacterial activity against Bacillus subtilis at 10000 ppm after 24 hrs by agar diffusion method
Bacillus subtilis [18] = assay: Antibacterial activity against Bacillus subtilis at 30000 ppm after 24 hrs by agar diffusion method
Bacillus cereus [19] = assay: Antibacterial activity against Bacillus cereus at 10000 ppm after 24 hrs by agar diffusion method
Bacillus cereus [20] = assay: Antibacterial activity against Bacillus cereus at 30000 ppm after 24 hrs by agar diffusion method
Micrococcus luteus [21] = assay: Antibacterial activity against Micrococcus luteus at 10000 ppm after 24 hrs by agar diffusion method

Row | Compound | zone of inhibition at 30000 ppm (Micrococcus luteus [1]) [mm] | zone of inhibition at 10000 ppm (Escherichia coli [2]) [mm] | zone of inhibition at 50000 ppm (Escherichia coli [3]) [mm] | zone of inhibition at 30000 ppm (Escherichia coli [4]) [mm] | zone of inhibition at 10000 ppm (Pseudomonas aeruginosa [5]) [mm] | zone of inhibition at 30000 ppm (Staphylococcus aureus [7]) [mm] | zone of inhibition at 50000 ppm (Pseudomonas aeruginosa [8]) [mm] | zone of inhibition at 50000 ppm (Kocuria rosea [9]) [mm] | zone of inhibition at 50000 ppm (Bacillus cereus [10]) [mm] | zone of inhibition at 10000 ppm (Kocuria rosea [11]) [mm] | zone of inhibition at 50000 ppm (Bacillus subtilis [12]) [mm] | zone of inhibition at 50000 ppm (Micrococcus luteus [13]) [mm] | zone of inhibition at 50000 ppm (Staphylococcus aureus [14]) [mm] | zone of inhibition at 30000 ppm (Kocuria rosea [15]) [mm] | zone of inhibition at 30000 ppm (Pseudomonas aeruginosa [16]) [mm] | zone of inhibition at 10000 ppm (Bacillus subtilis [17]) [mm] | zone of inhibition at 30000 ppm (Bacillus subtilis [18]) [mm] | zone of inhibition at 10000 ppm (Bacillus cereus [19]) [mm] | zone of inhibition at 30000 ppm (Bacillus cereus [20]) [mm] | zone of inhibition at 10000 ppm (Micrococcus luteus [21]) [mm] | also measured
1 | Nc1c[nH]/c(=N/c2nc3ccccc3[nH]2)[nH]1 | 4 | 3 | 14 | 8 | 4 | 9 | 9 | 12 | 4 | 6 | 6 | 8 | 15 | 8 | 7 | – | – | – | – | – | zone of inhibition at 10000 ppm (Staphylococcus aureus [6]): 4 mm
2 | Clc1c[nH]/c(=N/c2nc3ccccc3[nH]2)[nH]1 | – | 9 | 18 | 13 | – | 5 | 2 | 8 | 6 | – | 14 | 4 | 9 | 3 | – | 6 | 10 | – | – | – | –
3 | c1ccc(-c2c[nH]/c(=N/c3nc4ccccc4[nH]3)[nH]2)cc1 | – | 4 | 8 | 6 | 4 | 5 | 11 | 10 | 9 | 3 | 14 | 3 | 9 | 8 | 6 | 9 | 11 | 6 | 8 | – | –
4 | CC1=NN(c2ccccc2)C2(C1)NC(N)=Nc1nc3ccccc3n12 (configuration not stated) | 9 | 8 | 16 | 13 | – | – | 6 | 8 | 4 | – | 9 | 11 | 4 | 3 | 4 | – | 3 | – | – | 5 | –
5 | NC1=NC2(CCCC2)n2c(nc3ccccc32)N1 | 7 | 12 | 20 | 17 | – | 4 | 5 | 8 | 9 | – | 15 | 12 | 6 | 3 | – | 9 | 12 | – | 5 | 7 | –
6 | Cc1c[nH]/c(=N/c2nc3ccccc3[nH]2)[nH]1 | 7 | 1 | 8 | 4 | – | 3 | 7 | 9 | 12 | 5 | 15 | 8 | 6 | 7 | 4 | 10 | 13 | 6 | 9 | 6 | –
7 | NC1=Nc2nc3ccccc3n2C2(NC(=O)CC(=O)N2)N1 | 4 | 8 | 15 | 11 | 2 | 5 | 9 | 7 | 7 | 1 | 14 | 6 | 8 | 4 | 6 | 6 | 10 | 1 | 4 | – | –
8 | Oc1c[nH]/c(=N/c2nc3ccccc3[nH]2)[nH]1 | 5 | 6 | 13 | 8 | 5 | 7 | 11 | 8 | 10 | – | 7 | 9 | 13 | 6 | 8 | – | – | – | 5 | – | zone of inhibition at 10000 ppm (Staphylococcus aureus [6]): 2 mm
9 | NC1=Nc2nc3ccccc3n2C2(NC(=O)CS2)N1 (configuration not stated) | 3 | – | 8 | 5 | 5 | 5 | 11 | 10 | 11 | 4 | 16 | 7 | 8 | 7 | 8 | 9 | 13 | 6 | 8 | – | zone of inhibition at 10000 ppm (Staphylococcus aureus [6]): 3 mm
10 | CC1(C)[C@@H]2CC[C@@]1(C)C1(C2)NC(N)=Nc2nc3ccccc3n21 (some centres not stated) | – | 4 | 12 | 9 | – | 3 | – | 5 | 4 | – | 6 | – | 8 | 2 | – | 3 | 5 | – | – | – | –
11 | N#Cc1[nH]/c(=N/c2nc3ccccc3[nH]2)[nH]c1N | 7 | 8 | 19 | 13 | 6 | 7 | 9 | 9 | 14 | 4 | 16 | 9 | 7 | 7 | 8 | 8 | 11 | 6 | 10 | 4 | zone of inhibition at 10000 ppm (Staphylococcus aureus [6]): 3 mm
12 | NC1=NC2(CCCCC2)n2c(nc3ccccc32)N1 | 7 | 12 | 18 | 15 | – | – | 5 | 5 | 9 | – | 13 | 12 | 5 | – | 4 | 7 | 11 | – | 4 | 7 | –
